Earlier results in patent US12171873B2, “Devices and methods for delivery of substances to animals” (Ruminant Biotech Corp Limited, priority 2020, dated 2024).

What was measured:
[1] = slaughtered steers, after 48 hour with holding period
[2] = in vivo

Structure (SMILES): BrC(Br)Br [Bromoform, bromoform]
- residues in meat and tissue [1]: no residues
- level in milk [2]: no significant increase
